Measurements published in patent US12071425B2 (Genentech, Inc., priority 2018, dated 2024).
pIC50: −log10 of the molar value.

Biological target: kinase domain of IRE1 alpha (His-tagged kinase dead construct KR, AA G547-L977, D688N) (Homo sapiens (Human), UniProt O75460, D688N)
Test: IRE1α TR-FRET competition binding assay
Settings: competition with Kinase Tracer 236, 0.1 μM; one hour at room temperature
How it was run: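 Compound displacement of an ATP-site fluorescent tracer (0.1 μM final) measured by TR-FRET after 1 h at room temperature. Protein, a His-tagged D688N kinase/RNase construct from Sf9 cells (0.006 μM final), was pre-bound 1 h at 4° C to Eu anti-His antibody (0.002 μM) in pH 7.5 HEPES buffer.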

Chain of kinase domain of IRE1 alpha (His-tagged kinase dead construct KR, AA G547-L977, D688N) (O75460 547-977 D688N): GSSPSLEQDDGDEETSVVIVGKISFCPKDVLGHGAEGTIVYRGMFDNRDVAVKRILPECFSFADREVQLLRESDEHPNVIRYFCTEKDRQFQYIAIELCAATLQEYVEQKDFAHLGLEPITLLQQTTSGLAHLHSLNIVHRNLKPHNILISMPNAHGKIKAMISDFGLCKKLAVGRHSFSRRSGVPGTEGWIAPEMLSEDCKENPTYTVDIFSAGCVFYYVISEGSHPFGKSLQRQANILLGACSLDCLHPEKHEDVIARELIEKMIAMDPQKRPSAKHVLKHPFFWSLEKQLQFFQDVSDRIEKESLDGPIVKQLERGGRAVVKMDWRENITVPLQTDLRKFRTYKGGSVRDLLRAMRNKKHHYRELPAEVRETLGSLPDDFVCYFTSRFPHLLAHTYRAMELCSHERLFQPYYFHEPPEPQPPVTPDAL

SMILES | pIC50
O=S(=O)(Nc1ccc(Oc2ncccc2-c2ccnc(N[C@H]3CCCNC3)n2)c(F)c1F)c1ccccc1 [Compound 218, (S)-N-(2,3-difluoro-4-((3-(2-(piperidin-3-ylamino)pyrimidin-4-yl)pyridin-2-yl)oxy)phenyl)benzenesulfonamide] | 7.80
N#Cc1ccc(S(=O)(=O)Nc2ccc(Oc3ncccc3-c3ccnc(N[C@H]4CCCNC4)n3)c(F)c2F)cc1 [Compound 219, (S)-4-cyano-N-(2,3-difluoro-4-((3-(2-(piperidin-3-ylamino)pyrimidin-4-yl)pyridin-2-yl)oxy)phenyl)benzenesulfonamide] | 7.28
N#Cc1cccc(S(=O)(=O)Nc2ccc(Oc3ncccc3-c3ccnc(N[C@H]4CCCNC4)n3)c(F)c2F)c1 [Compound 220, (S)-3-cyano-N-(2,3-difluoro-4-((3-(2-(piperidin-3-ylamino)pyrimidin-4-yl)pyridin-2-yl)oxy)phenyl)benzenesulfonamide] | 7.72
Cn1cnc(S(=O)(=O)Nc2ccc(Oc3ncccc3-c3ccnc(N[C@H]4CCCNC4)n3)c(F)c2F)c1 [Compound 221, (S)-N-(2,3-difluoro-4-((3-(2-(piperidin-3-ylamino)pyrimidin-4-yl)pyridin-2-yl)oxy)phenyl)-1-methyl-1H-imidazole-4-sulfonamide] | 6.42
Cn1cc(S(=O)(=O)Nc2ccc(Oc3ncccc3-c3ccnc(N[C@H]4CCCNC4)n3)c(F)c2F)cn1 [Compound 222, (S)-N-(2,3-difluoro-4-((3-(2-(piperidin-3-ylamino)pyrimidin-4-yl)pyridin-2-yl)oxy)phenyl)-1-methyl-1H-pyrazole-4-sulfonamide] | 6.62
O=S(=O)(Nc1ccc(Oc2ncccc2-c2ccnc(N[C@H]3CCCNC3)n2)c(F)c1F)c1ccc(OC(F)(F)F)cc1 [Compound 223, (S)-N-(2,3-difluoro-4-((3-(2-(piperidin-3-ylamino)pyrimidin-4-yl)pyridin-2-yl)oxy)phenyl)-4-(trifluoromethoxy)benzenesulfonamide] | 7.59
COc1ccccc1S(=O)(=O)Nc1ccc(Oc2ncccc2-c2ccnc(N[C@H]3CCCNC3)n2)c(F)c1F [Compound 224, (S)-N-(2,3-difluoro-4-((3-(2-(piperidin-3-ylamino)pyrimidin-4-yl)pyridin-2-yl)oxy)phenyl)-2-methoxybenzenesulfonamide] | 7.40
O=S(=O)(Cc1cccc(Cl)c1)Nc1ccc(Oc2ncccc2-c2ccnc(N[C@H]3CCCNC3)n2)c(F)c1F [Compound 225, (S)-1-(3-chlorophenyl)-N-(2,3-difluoro-4-((3-(2-(piperidin-3-ylamino)pyrimidin-4-yl)pyridin-2-yl)oxy)phenyl)methanesulfonamide] | 8.21
CC(C)(C)CCS(=O)(=O)Nc1ccc(Oc2ncccc2-c2ccnc(N[C@H]3CCCNC3)n2)c(F)c1F [Compound 226, (S)-N-(2,3-difluoro-4-((3-(2-(piperidin-3-ylamino)pyrimidin-4-yl)pyridin-2-yl)oxy)phenyl)-3,3-dimethylbutane-1-sulfonamide] | 7.74
O=S(=O)(CC1CCCC1)Nc1ccc(Oc2ncccc2-c2ccnc(N[C@H]3CCCNC3)n2)c(F)c1F [Compound 228, (S)-1-cyclopentyl-N-(2,3-difluoro-4-((3-(2-(piperidin-3-ylamino)pyrimidin-4-yl)pyridin-2-yl)oxy)phenyl)methanesulfonamide] | 8.04
N#Cc1cccc(CS(=O)(=O)Nc2ccc(Oc3ncccc3-c3ccnc(N[C@H]4CCCNC4)n3)c(F)c2F)c1 [Compound 229, (S)-1-(3-cyanophenyl)-N-(2,3-difluoro-4-((3-(2-(piperidin-3-ylamino)pyrimidin-4-yl)pyridin-2-yl)oxy)phenyl)methanesulfonamide] | 8.19
CC(C)(C)CCCS(=O)(=O)Nc1ccc(Oc2ncccc2-c2ccnc(N[C@H]3CCCNC3)n2)c(F)c1F [Compound 230, (S)-N-(2,3-difluoro-4-((3-(2-(piperidin-3-ylamino)pyrimidin-4-yl)pyridin-2-yl)oxy)phenyl)-4,4-dimethylpentane-1-sulfonamide] | 7.85
O=S(=O)(Cc1cccc(F)c1)Nc1ccc(Oc2ncccc2-c2ccnc(N[C@H]3CCCNC3)n2)c(F)c1F [Compound 231, (S)-N-(2,3-difluoro-4-((3-(2-(piperidin-3-ylamino)pyrimidin-4-yl)pyridin-2-yl)oxy)phenyl)-1-(3-fluorophenyl)methanesulfonamide] | 8.14
O=S(=O)(CC1CC(F)(F)C1)Nc1ccc(Oc2ncccc2-c2ccnc(N[C@H]3CCCNC3)n2)c(F)c1F [Compound 232, (S)-N-(2,3-difluoro-4-(3-(2-(piperidin-3-ylamino)pyrimidin-4-yl)pyridin-2-yloxy)phenyl)-1-(3,3-difluorocyclobutyl)methanesulfonamide] | 7.82
O=S(=O)(Cc1cccnc1)Nc1ccc(Oc2ncccc2-c2ccnc(N[C@H]3CCCNC3)n2)c(F)c1F [Compound 233, (S)-N-(2,3-difluoro-4-(3-(2-(piperidin-3-ylamino)pyrimidin-4-yl)pyridin-2-yloxy)phenyl)-1-(pyridin-3-yl)methanesulfonamide] | 8.05
O=S(=O)(Cc1ccncc1)Nc1ccc(Oc2ncccc2-c2ccnc(N[C@H]3CCCNC3)n2)c(F)c1F [Compound 234, (S)-N-(2,3-difluoro-4-(3-(2-(piperidin-3-ylamino)pyrimidin-4-yl)pyridin-2-yloxy)phenyl)-1-(pyridin-4-yl)methanesulfonamide] | 8.15
O=S(=O)(Cc1ccc(F)cc1)Nc1ccc(Oc2ncccc2-c2ccnc(N[C@H]3CCCNC3)n2)c(F)c1F [Compound 235, (S)-N-(2,3-difluoro-4-(3-(2-(piperidin-3-ylamino)pyrimidin-4-yl)pyridin-2-yloxy)phenyl)-1-(4-fluorophenyl)methanesulfonamide] | 8.40
Cn1ccc(CS(=O)(=O)Nc2c(F)cc(Oc3ncccc3-c3ccnc(N[C@H]4CCCNC4)n3)c(F)c2F)n1 [Compound 236, (S)-1-(1-methyl-1H-pyrazol-3-yl)-N-(2,3,6-trifluoro-4-(3-(2-(piperidin-3-ylamino)pyrimidin-4-yl)pyridin-2-yloxy)phenyl)methanesulfonamide] | 8.05

Other lines, results leading:

pIC50 | SMILES
8.08 | Cc1c(Oc2ncccc2-c2ccnc(N[C@H]3CCCNC3)n2)ccc(NS(=O)(=O)Cc2ccccc2)c1F [Compound 237, N-[2-Fluoro-3-methyl-4-[[3-[2-[[(3S)-3-piperidyl]amino]pyrimidin-4-yl]-2-pyridyl]oxy]phenyl]-1 phenylmethanesulfonamide]
7.85 | O=S(=O)(Cc1ccccn1)Nc1ccc(Oc2ncccc2-c2ccnc(N[C@H]3CCCNC3)n2)c(F)c1F [Compound 238, (S)—N-(2,3-Difluoro-4-(3-(2-(piperidin-3-ylamino)pyrimidin-4-yl)pyridin-2-yloxy)phenyl)-1-(pyridin-2-yl)methanesulfonamide]
8.31 | N#Cc1ccc(CS(=O)(=O)Nc2ccc(Oc3ncccc3-c3ccnc(N[C@H]4CCCNC4)n3)c(F)c2F)cc1 [Compound 250, (S)-1-(4-Cyanophenyl)-N-(2,3-difluoro-4-((3-(2-(piperidin-3-ylamino)pyrimidin-4-yl)pyridin-2-yl)oxy)phenyl)methanesulfonamide]
8.55 | C[C@@]1(F)CNC[C@@H](Nc2nccc(-c3cccnc3Oc3cc(F)c(NS(=O)(=O)CC4CC(F)(F)C4)c(F)c3F)n2)C1 [Compound 251, 1-(3,3-Difluorocyclobutyl)-N-(2,3,6-trifluoro-4-((3-(2-(((3S,5S)-5-fluoro-5-methylpiperidin-3-yl)amino)pyrimidin-4-yl)pyridin-2-yl)oxy)phenyl)methanesulfonamide]
7.85 | COCCS(=O)(=O)Nc1c(F)cc(Oc2ncccc2-c2ccnc(N[C@@H]3CNC[C@@H](F)C3)n2)c(F)c1F [Compound 252, 2-Methoxy-N-(2,3,6-trifluoro-4-((3-(2-(((3S,5S)-5-fluoropiperidin-3-yl)amino)pyrimidin-4-yl)pyridin-2-yl)oxy)phenyl)ethane-1-sulfonamide]
8.72 | CC(F)(F)CCS(=O)(=O)Nc1c(F)cc(Oc2ncccc2-c2ccnc(N[C@@H]3CNC[C@@H](F)C3)n2)c(F)c1F [Compound 253, 3,3-Difluoro-N-(2,3,6-trifluoro-4-((3-(2-(((3S,5S)-5-fluoropiperidin-3-yl)amino)pyrimidin-4-yl)pyridin-2-yl)oxy)phenyl)butane-1-sulfonamide]
9.21 | O=S(=O)(Cc1ccc(C(F)(F)F)nc1)Nc1c(F)cc(Oc2ncccc2-c2ccnc(N[C@@H]3CNC[C@@H](F)C3)n2)c(F)c1F [Compound 254, N-(2,3,6-Trifluoro-4-((3-(2-(((3S,5S)-5-fluoropiperidin-3-yl)amino)pyrimidin-4-yl)pyridin-2-yl)oxy)phenyl)-1-(6-(trifluoromethyl)pyridin-3-yl)methanesulfonamide]
6.64 | Cc1c(F)c(NS(=O)(=O)Cc2ccc(C#N)cc2)c(F)c(F)c1Oc1ncccc1-c1ccnc(N[C@@H]2CNC[C@@H](F)C2)n1 [Compound 255, 1-(4-Cyanophenyl)-N-(2,3,6-trifluoro-4-((3-(2-(((3S,5S)-5-fluoropiperidin-3-yl)amino)pyrimidin-4-yl)pyridin-2-yl)oxy)-5-methylphenyl)methanesulfonamide]
9.00 | O=S(=O)(Cc1cccnc1)Nc1c(F)cc(Oc2ncccc2-c2ccnc(N[C@@H]3CNC[C@@H](F)C3)n2)c(F)c1F [Compound 256, 1-(Pyridin-3-yl)-N-(2,3,6-trifluoro-4-((3-(2-(((3S,5S)-5-fluoropiperidin-3-yl)amino)pyrimidin-4-yl)pyridin-2-yl)oxy)phenyl)methanesulfonamide]
7.62 | C[C@H]1CC[C@H](Nc2nccc(-c3cccnc3Oc3cc(F)c(NS(=O)(=O)Cc4ccccc4)c(F)c3F)n2)CN1 [Compound 257, 1-Phenyl-N-(2,3,6-trifluoro-4-((3-(2-(((3S,6S)-6-methylpiperidin-3-yl)amino)pyrimidin-4-yl)pyridin-2-yl)oxy)phenyl)methanesulfonamide]
